Laboratory results: patent US20240309447A1, “METHODS AND KITS FOR PREPARING A SAMPLE […] OR MORE RNA MOLECULES FOR SEQUENCING” (The Hong Kong University of Science and Technology, priority 2023, published 2024)

Tests used:
Format in all cases: biochemical
[1] = target: T1, E coli. poly(A) polymerase (Escherichia coli, UniProt P0ABF1); experiment: Poly(A) polymerase-based extension of C, G and U-terminated model short RNAs, Urea-PAGE; conditions: for addition of oligo nucleotide analogue to model short RNAs with different 3′ terminal bases: 1 mM, 37° C., 15 minutes
T1 sequence (P0ABF1 11-465): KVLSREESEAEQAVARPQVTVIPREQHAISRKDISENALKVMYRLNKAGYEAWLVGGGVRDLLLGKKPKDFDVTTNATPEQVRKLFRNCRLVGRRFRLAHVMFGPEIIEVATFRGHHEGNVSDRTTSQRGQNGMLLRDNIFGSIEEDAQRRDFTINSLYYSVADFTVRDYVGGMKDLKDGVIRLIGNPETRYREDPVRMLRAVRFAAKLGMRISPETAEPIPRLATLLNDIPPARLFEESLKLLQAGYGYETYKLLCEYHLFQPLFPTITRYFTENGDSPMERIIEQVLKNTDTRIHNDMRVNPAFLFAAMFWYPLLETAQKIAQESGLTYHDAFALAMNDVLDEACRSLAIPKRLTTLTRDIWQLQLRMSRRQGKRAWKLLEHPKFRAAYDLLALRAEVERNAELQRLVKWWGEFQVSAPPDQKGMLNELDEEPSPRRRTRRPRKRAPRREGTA
Protocol: In this example, 2-Amino-ATP, 2-Amino-6-Cl-purine-rTP and 2′-F-dATP have been tested for poly(A) polymerase-based extension to add the respective oligo nucleotide analogue sequences to the 3′ termini of model short RNAs with different terminal bases other than A, i.e. C, G and U-terminated model short RNAs as shown in Table 1. ATP was used as the positive control. The reaction cocktail for the poly(A) polymerase-based extension for each model short RNA was prepared as described in Table 2. The 10 μL of the reaction mixture was incubated at 37° C. for 15 minutes to allow the addition of 2-Amino-6-Cl-purine-rTP to the model short RNAs. The reacted RNA products were visualized using Urea-PAGE.

[2] = target: T1, E coli. poly(A) polymerase; experiment: Poly(A) polymerase-based extension of model short RNA (A-terminated), Urea-PAGE; conditions: for addition of nucleotide analogue sequence to the 3′ termini of the model short RNA: 1 mM analogue, 15 minutes, model short RNA (A-terminated)
Protocol: The reaction cocktail was used in the subsequent studies as described in examples below.
ATP was used as the positive control. The reaction cocktail for the poly(A) polymerase-based extension for each of the nucleoside analogue triphosphates and ATP was prepared as described in Table 2. The 10 μL of the reaction cocktail was incubated at 37° C. for 15 minutes to allow the extension of the adenine nucleotides (A) or nucleotide analogues. The reacted RNA products were visualized using Urea-PAGE.
The experiment was further repeated for 2-Amino-6-Cl-purine-rTP addition by poly(A) polymerase-based extension with different incubation times, i.e. 5, 10, 15, 20 minutes respectively. Addition of ATP by poly(A) polymerase-based extension with 20-minute incubation time was used as the positive control. The reacted RNA products were visualized using Urea-PAGE.

[3] = target: T1, E coli. poly(A) polymerase; experiment: Poly(A) polymerase-based reaction with different nucleotide analogues and their combination on UnaG-120A mRNA, Fragment Analyzer; conditions: for addition to UnaG-120A mRNA by poly(A) polymerase: 1 mM total analogue, 37° C., 15 minutes; for appearance of the RNA product: UnaG-120A mRNA, Fragment Analyzer
Protocol: In this example, the ability of poly(A) polymerase-based reaction to add different nucleotide analogues to the 3′ termini of UnaG-120A mRNA as the oligo nucleotide analogue sequence has been tested. […] The 10 μL of the reaction mixture was incubated at 37° C. for 15 minutes. The reacted RNA products were visualized using Fragment Analyzer.

[4] = target: T1, E coli. poly(A) polymerase; experiment: One-pot 3′ extension of model short RNA, Urea-PAGE; conditions: 15 minutes analogue, then ATP added, 37° C.
Protocol: In this example, the reaction cocktail for the one-pot 3′ extension of model short RNA (as shown in Table 1) was prepared as described in Table 4. The reaction cocktail (without ATP) was incubated at 37° C. for 15 minutes to allow for 2-Amino-6-Cl-purine-rTP addition. After 15 minutes of reaction, 1 μL of 10 mM ATP (New England BioLabs®) was directly added into the reaction mixture, and further incubated for different durations of time at 37° C.

[5] = target: T1, E coli. poly(A) polymerase; experiment: Poly(A) polymerase-based extension of model mRNA mixture, Fragment Analyzer; conditions: mixture of CLuc-53AGGCCCCU, EGFP-40A, UnaG-120A; 15-minute extension
Excerpt: In this example, three model mRNAs CLuc-53AGGCCCCU, EGFP-40A, and UnaG-120A as shown in Table 1 are mixed in an equal amount to create a model mRNA mixture. The same poly(A) polymerase-based extension as described in Example 5 was used to add 2-Amino-6-Cl-purine-rTP to the model RNA mixture. Fragment Analyzer (Agilent®) was used to measure the lengths of the model RNA mixture before and after the reaction.

Compound | addition of oligo nucleotide analogue to model short RNAs with different 3′ terminal bases [1] | addition of nucleotide analogue sequence to the 3′ termini of the model short RNA ([2]; 37° C.) | addition to UnaG-120A mRNA by poly(A) polymerase [3] | appearance of the RNA product [3] | sequential addition of oligo analogue sequence and oligo(A) sequence [4] | addition of oligo sequence to model mRNAs (upward band shift) [5] | comparison among nucleotide analogues [1] | time within which the reaction was complete ([2]; 37° C., 1 mM) [min] | nucleotides added to the 3′ terminus of model short RNA ([2]; 5 minutes incubation, 37° C., 1 mM) | length of tailed model short RNA product ([2]; 5 minutes incubation, original RNA 136 nt) [nt]
Nc1nc(N)c2ncn(C3OC(COP(=O)(O)OP(=O)(O)OP(=O)(O)O)C(O)C3O)c2n1 (stereo not shown) [2-Amino-ATP] | successfully added | successfully added | can be added | distribution of RNA sizes shown as a smear | – | – | – | – | – | –
Nc1nc(Cl)c2ncn(C3OC(COP(=O)(O)OP(=O)(O)OP(=O)(O)O)C(O)C3O)c2n1 (stereo not shown) [2-Amino-6-Cl-purine-rTP] | successfully added | successfully added | can be added | upshifted clear main band | successfully added | added to all model mRNAs | produced the best results | 10 to 20 | over 60 nts | > 196
Nc1ncnc2c1ncn2C1OC(COP(=O)(O)OP(=O)(O)OP(=O)(O)O)C(O)C1F (stereo not shown) [2′-F-dATP] | successfully added | successfully added | – | – | – | – | – | – | – | –
